Columns and labels:
Test in all cases: relative viability (nuclei count vs DMSO), 5 days (fraction); higher = more cells survive
Conditions in all cases: main component drawn
Bleomycin + Palbociclib = compound: CC1=C(N=C(N=C1N)[C@H](CC(=O)N)NC[C@@H](C(=O)N)N)C(=O)N[C@@H]([C@H](C2=CN=CN2)OC3C(C(C(C(O3)CO)O)O)OC4C(C(C(C(O4)CO)O)OC(=O)N)O)C(=O)N[C@H](C)[C@H]([C@H](C)C(=O)N[C@@H]([C@@H](C)O)C(=O)NCCC5=NC(=CS5)C6=NC(=CS6)C(=O)NCCC[S+](C)C)O [Bleomycin] + CC(=O)c1c(C)c2cnc(Nc3ccc(N4CCNCC4)cn3)nc2n(C2CCCC2)c1=O [Palbociclib] (partner 0.5 µM)
Summary of the method: (§1)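 For relative viability, nuclei counts in treated wells were divided by those in vehicle wells. Lung cancer cell lines had been pin-tool dosed in 1536-well plates the day after seeding and cultured for 5 days, then fixed and stained in one step (final 0.05% Triton X-100, 1% formaldehyde, 1 ug/ml Hoechst) and imaged at 4×. Doses were one drug alone or a fixed anchor-drug dose plus five library-drug doses (not always all listed) in √10 steps, and values are duplicate-plate medians.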

Bleomycin + Trametinib = compound: CC1=C(N=C(N=C1N)[C@H](CC(=O)N)NC[C@@H](C(=O)N)N)C(=O)N[C@@H]([C@H](C2=CN=CN2)OC3C(C(C(C(O3)CO)O)O)OC4C(C(C(C(O4)CO)O)OC(=O)N)O)C(=O)N[C@H](C)[C@H]([C@H](C)C(=O)N[C@@H]([C@@H](C)O)C(=O)NCCC5=NC(=CS5)C6=NC(=CS6)C(=O)NCCC[S+](C)C)O [Bleomycin] + CC(=O)Nc1cccc(-n2c(=O)n(C3CC3)c(=O)c3c(Nc4ccc(I)cc4F)n(C)c(=O)c(C)c32)c1 [Trametinib] (partner 0.02 µM)
Summary of the method: as §1

Bleomycin + Linsitinib = compound: CC1=C(N=C(N=C1N)[C@H](CC(=O)N)NC[C@@H](C(=O)N)N)C(=O)N[C@@H]([C@H](C2=CN=CN2)OC3C(C(C(C(O3)CO)O)O)OC4C(C(C(C(O4)CO)O)OC(=O)N)O)C(=O)N[C@H](C)[C@H]([C@H](C)C(=O)N[C@@H]([C@@H](C)O)C(=O)NCCC5=NC(=CS5)C6=NC(=CS6)C(=O)NCCC[S+](C)C)O [Bleomycin] + C[C@]1(O)C[C@@H](c2nc(-c3ccc4ccc(-c5ccccc5)nc4c3)c3c(N)nccn32)C1 [Linsitinib] (partner 1 µM)
Summary of the method: as §1

Bleomycin + Navitoclax = compound: CC1=C(N=C(N=C1N)[C@H](CC(=O)N)NC[C@@H](C(=O)N)N)C(=O)N[C@@H]([C@H](C2=CN=CN2)OC3C(C(C(C(O3)CO)O)O)OC4C(C(C(C(O4)CO)O)OC(=O)N)O)C(=O)N[C@H](C)[C@H]([C@H](C)C(=O)N[C@@H]([C@@H](C)O)C(=O)NCCC5=NC(=CS5)C6=NC(=CS6)C(=O)NCCC[S+](C)C)O [Bleomycin] + CC1(C)CCC(c2ccc(Cl)cc2)=C(CN2CCN(c3ccc(C(=O)NS(=O)(=O)c4ccc(N[C@H](CCN5CCOCC5)CSc5ccccc5)c(S(=O)(=O)C(F)(F)F)c4)cc3)CC2)C1 [Navitoclax] (partner 0.5 µM)
Summary of the method: as §1

Cell Line	relative viability (Bleomycin + Palbociclib; first compound 0.01 µM)	relative viability (Bleomycin + Palbociclib; first compound 0.03162 µM)	relative viability (Bleomycin + Palbociclib; first compound 0.1 µM)	relative viability (Bleomycin + Palbociclib; first compound 0.3162 µM)	relative viability (Bleomycin + Palbociclib; first compound 1 µM)	relative viability (Bleomycin + Trametinib; first compound 0.01 µM)	relative viability (Bleomycin + Trametinib; first compound 0.03162 µM)	relative viability (Bleomycin + Trametinib; first compound 0.1 µM)	relative viability (Bleomycin + Trametinib; first compound 0.3162 µM)	relative viability (Bleomycin + Trametinib; first compound 1 µM)	relative viability (Bleomycin + Linsitinib; first compound 0.01 µM)	relative viability (Bleomycin + Linsitinib; first compound 0.03162 µM)	relative viability (Bleomycin + Linsitinib; first compound 0.1 µM)	relative viability (Bleomycin + Linsitinib; first compound 0.3162 µM)	relative viability (Bleomycin + Linsitinib; first compound 1 µM)	relative viability (Bleomycin + Navitoclax; first compound 0.01 µM)	relative viability (Bleomycin + Navitoclax; first compound 0.03162 µM)	relative viability (Bleomycin + Navitoclax; first compound 0.1 µM)	relative viability (Bleomycin + Navitoclax; first compound 0.3162 µM)	relative viability (Bleomycin + Navitoclax; first compound 1 µM)
H3255	0.324	0.324	0.283	0.312	0.279	0.575	0.506	0.629	0.485	0.357	0.702	0.879	0.902	0.538	0.387	0.395	0.596	0.495	0.229	0.179
NCI-H1792	0.613	0.624	0.592	0.482	0.362	0.462	0.396	0.356	0.317	0.189	0.515	0.484	0.281	0.202	0.189	0.541	0.665	0.492	0.302	0.109
SK-MES-1	0.313	0.306	0.329	0.254	0.204	0.501	0.532	0.527	0.28	0.219	0.923	0.974	0.819	0.287	0.216	1.12	0.97	0.736	0.278	0.18
NCI-H2126	0.338	0.384	0.298	0.33	0.319	0.525	0.583	0.594	0.52	0.508	0.641	0.756	0.687	0.645	0.546	0.787	0.82	0.839	0.8	0.643
HCC-366	0.19	0.155	0.106	0.0548	0.0409	0.219	0.144	0.147	0.0475	0.0448	0.29	0.229	0.171	0.0412	0.0312	0.74	0.489	0.268	0.0573	0.0178
NCI-H838	0.22	0.173	0.169	0.153	0.129	0.432	0.246	0.186	0.154	0.118	0.652	0.314	0.191	0.189	0.159	0.768	0.403	0.274	0.19	0.172
LU99A	0.329	0.405	0.286	0.167	0.126	0.485	0.485	0.438	0.22	0.173	0.379	0.348	0.252	0.166	0.127	0.622	0.491	0.335	0.166	0.147
HCC-78	0.522	0.533	0.412	0.4	0.463	0.575	0.679	0.651	0.632	0.593	0.488	0.343	0.343	0.282	0.179	0.463	0.439	0.387	0.326	0.278
NCI-H1755	0.433	0.435	0.457	0.408	0.428	0.734	0.726	0.78	0.665	0.61	0.97	0.992	0.981	0.767	0.618	0.932	0.933	0.945	0.724	0.394
NCI-H322M	0.472	0.562	0.484	0.428	0.491	0.477	0.524	0.479	0.385	0.504	0.961	1.01	0.95	1.1	0.684	1.13	1.36	1.36	1.28	0.597
PC-3 [JPC-3]	0.487	0.596	0.525	0.53	0.488	0.68	0.722	0.617	0.449	0.433	0.865	0.944	0.847	0.723	0.53	0.784	0.957	0.758	0.63	0.511
NCI-H2405	0.424	0.502	0.544	0.346	0.323	0.537	0.529	0.578	0.444	0.313	0.745	0.834	0.69	0.373	0.341	0.559	0.714	0.499	0.196	0.199
NCI-H23	0.311	0.251	0.25	0.15	0.152	0.226	0.321	0.189	0.161	0.144	0.292	0.253	0.225	0.152	0.137	0.47	0.284	0.276	0.155	0.181
NCI-H1793	0.316	0.302	0.313	0.216	0.19	0.442	0.413	0.382	0.262	0.194	0.943	0.762	0.719	0.276	0.249	0.355	0.404	0.298	0.177	0.163
EKVX	0.366	0.366	0.299	0.209	0.189	0.396	0.298	0.301	0.196	0.158	0.909	0.822	0.859	0.375	0.336	0.75	0.925	0.842	0.424	0.285
HOP-62	0.249	0.259	0.285	0.167	0.125	0.34	0.278	0.264	0.203	0.159	0.485	0.554	0.335	0.135	0.112	0.367	0.405	0.118	0.0652	0.0435
NCI-H2228	0.719	0.683	0.465	0.411	0.226	0.537	0.468	0.431	0.269	0.26	0.675	0.647	0.714	0.559	0.4	1.02	0.625	0.664	0.437	0.363
EPLC-272H	0.329	0.311	0.311	0.213	0.218	0.302	0.256	0.207	0.193	0.184	1.21	1.06	1.08	1.45	0.196	0.793	0.888	0.826	1.29	0.159
RERF-LC-KJ	0.678	0.537	0.444	0.185	0.18	0.678	0.563	0.492	0.272	0.229	0.617	0.502	0.502	0.233	0.22	0.54	0.5	0.439	0.227	0.192
PC-14	0.193	0.174	0.127	0.0449	0.0437	0.243	0.205	0.133	0.0541	0.0419	0.578	0.51	0.309	0.118	0.119	0.663	0.532	0.174	0.0752	0.0592
COR-L 105	0.389	0.37	0.435	0.392	0.395	0.459	0.417	0.419	0.369	0.332	0.765	0.798	0.708	0.393	0.317	0.59	0.884	0.716	0.483	0.28
NCI-H3122	0.198	0.186	0.18	0.132	0.148	0.257	0.247	0.231	0.185	0.187	1.05	1.03	1.01	0.744	0.457	1.08	1.03	0.96	0.79	0.547
NCI-H1395	0.518	0.549	0.499	0.341	0.342	0.753	0.822	0.714	0.482	0.404	0.715	0.843	0.666	0.626	0.391	0.829	0.944	0.709	0.535	0.496
NCI-H727	0.346	0.721	0.654	0.526	0.636	0.376	0.321	0.392	0.404	0.406	0.293	0.251	0.33	0.183	0.34	0.388	0.339	0.351	0.181	0.286
NCI-H1915	0.419	0.389	0.332	0.173	0.131	0.282	0.295	0.215	0.165	0.128	0.891	1.01	0.813	0.428	0.216	0.726	0.78	0.732	0.537	0.212
CAL-12T	0.309	0.365	0.232	0.116	0.192	0.339	0.326	0.294	0.174	0.18	0.623	0.49	0.258	0.156	0.176	0.964	0.785	0.551	0.228	0.201

Reference: the supplement of paper PMC10307832
